Source: the supplement of paper PMC10307832

Columns and labels:
Assay in all cases: relative viability (nuclei count vs DMSO), 5 days (fraction); higher = more cells survive
[1] = compound: COc1cc(-c2nn([C@H]3CC[C@H](N4CCN(C(C)=O)CC4)CC3)c3ncnc(N)c23)ccc1NC(=O)c1cc2ccccc2n1C + O=C(CCCCCCC(=O)Nc1ccccc1)NO [Vorinostat] (partner 1 µM)
How it was run: (§1)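 Dosing by pin tool came one day after lung cancer cell lines were seeded in 1536-well plates, using either one drug or a fixed anchor-drug dose plus five library-drug doses (not always all listed) in √10 steps. After 5 days, nuclei were counted on 4× images. Relative viability is treated-well nuclei count divided by vehicle-well nuclei count, and values are medians of duplicate plates.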

Midostaurin + OSI-027 = compound: CO[C@@H]1[C@H](N(C)C(=O)c2ccccc2)C[C@H]2O[C@]1(C)n1c3ccccc3c3c4c(c5c6ccccc6n2c5c31)C(=O)NC4 [Midostaurin] + COc1cccc2cc(-c3nc([C@H]4CC[C@H](C(=O)O)CC4)n4ncnc(N)c34)[nH]c12 [OSI-027] (partner 0.5 µM)
How it was run: as §1

[2] = compound: COc1cc(-c2nn([C@H]3CC[C@H](N4CCN(C(C)=O)CC4)CC3)c3ncnc(N)c23)ccc1NC(=O)c1cc2ccccc2n1C + Nc1nc2[nH]cc(CCc3ccc(C(=O)N[C@@H](CCC(=O)O)C(=O)O)cc3)c2c(=O)[nH]1 [Pemetrexed] (partner 0.2 µM)
How it was run: as §1

Midostaurin = compound: CO[C@@H]1[C@H](N(C)C(=O)c2ccccc2)C[C@H]2O[C@]1(C)n1c3ccccc3c3c4c(c5c6ccccc6n2c5c31)C(=O)NC4 [Midostaurin]
How it was run: (§2)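 Viability was read as treated-well nuclei divided by vehicle-well nuclei, using the median across plates. Lung cancer cell lines in 1536-well plates were kept overnight at 37 °C, pinned with five √10-spaced library-drug doses, and after 5 days were Hoechst-stained, imaged at 4× and counted in MetaXpress. Plates passed only with control CV below 25% and at least one doubling.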

[3] = compound: COc1cc(-c2nn([C@H]3CC[C@H](N4CCN(C(C)=O)CC4)CC3)c3ncnc(N)c23)ccc1NC(=O)c1cc2ccccc2n1C
How it was run: as §2

Row | Cell Line | relative viability ([1]; first compound 0.0128 µM) | relative viability ([1]; first compound 0.128 µM) | relative viability ([1]; first compound 1.28 µM) | relative viability (Midostaurin + OSI-027; first compound 0.01 µM) | relative viability (Midostaurin + OSI-027; first compound 0.03162 µM) | relative viability (Midostaurin + OSI-027; first compound 0.1 µM) | relative viability (Midostaurin + OSI-027; first compound 0.3162 µM) | relative viability ([2]; first compound 0.0128 µM) | relative viability ([2]; first compound 0.128 µM) | relative viability ([2]; first compound 1.28 µM) | relative viability (Midostaurin; 0.01 µM) | relative viability (Midostaurin; 0.03162 µM) | relative viability (Midostaurin; 0.1 µM) | relative viability (Midostaurin; 0.3162 µM) | relative viability ([3]; 0.0128 µM) | relative viability ([3]; 0.128 µM) | relative viability ([3]; 1.28 µM) | relative viability ([1]; first compound 0.04048 µM) | relative viability ([2]; first compound 0.04048 µM) | relative viability ([3]; 0.04048 µM)
1 | NCI-H2087 | 0.745 | 0.798 | 0.987 | 0.567 | 0.491 | 0.573 | 0.554 | 0.601 | 0.697 | 0.707 | 0.972 | 0.938 | 0.985 | 1.26 | 1.09 | 1.1 | 1.11 | – | – | –
2 | NCI-H2126 | 0.92 | 0.658 | 0.636 | 0.808 | 0.545 | 0.685 | 0.666 | 0.621 | 0.669 | 0.618 | 1.02 | 0.872 | 0.999 | 1.02 | 1.04 | 0.963 | 0.792 | 0.621 | 0.656 | 1.01
3 | NCI-H2170 | 1.09 | 0.8 | 0.704 | 0.697 | 0.681 | 0.683 | 0.79 | 0.267 | 0.296 | 0.253 | 0.973 | 0.941 | 1.01 | 1 | 1.07 | 0.991 | 0.821 | 0.969 | 0.275 | 0.996
4 | NCI-H2228 | 0.869 | 0.568 | 0.527 | 0.652 | 0.603 | 0.687 | 0.703 | 0.362 | 0.31 | 0.322 | 1.02 | 0.969 | 1.22 | 1.18 | 1.22 | 1.12 | 0.744 | 0.609 | 0.348 | 1
5 | NCI-H2342 | 0.762 | 0.861 | 0.825 | 0.667 | 0.619 | 0.658 | 0.74 | 0.762 | 0.781 | 0.771 | 0.913 | 0.903 | 1.04 | 0.989 | 0.807 | 1 | 0.932 | 0.758 | 0.821 | 1.03
6 | NCI-H2347 | 0.658 | 0.521 | 0.543 | 0.453 | 0.35 | 0.365 | 0.38 | 0.45 | 0.431 | 0.382 | 1.12 | 0.97 | 1.06 | 1.09 | 1.01 | 1.04 | 1.08 | 0.499 | 0.447 | 0.781
7 | NCI-H2405 | 1.01 | 0.834 | 0.374 | 0.65 | 0.6 | 0.525 | 0.633 | 1.02 | 0.991 | 0.426 | 1.01 | 1.05 | 0.883 | 1.07 | 1.06 | 0.964 | 0.526 | 0.886 | 0.698 | 0.667
8 | NCI-H3122 | 1.49 | 0.889 | 0.861 | 0.932 | 0.492 | 1.06 | 1.41 | 0.19 | 0.201 | 0.194 | 1.03 | 0.962 | 0.95 | 1.05 | 1.07 | 0.987 | 0.76 | – | – | –
9 | PC-3 [JPC-3] | 0.667 | 0.808 | 1.01 | 0.718 | 0.579 | 0.78 | 0.806 | 0.971 | 1.02 | 1.15 | 0.991 | 0.907 | 1.07 | 1.1 | 1.01 | 1.01 | 1.09 | 0.989 | 1.15 | 1.09
10 | PC-14 | 0.931 | 0.653 | 0.716 | 0.92 | 0.811 | 0.875 | 1.02 | 0.136 | 0.136 | 0.133 | 0.995 | 0.988 | 0.963 | 0.961 | 1.09 | 0.957 | 1.08 | 0.823 | 0.118 | 1.13
11 | RERF-LC-KJ | 0.754 | 0.75 | 0.619 | 0.622 | 0.614 | 0.673 | 0.663 | 0.489 | 0.47 | 0.46 | 1.02 | 1.01 | 1.04 | 1.04 | 1 | 0.94 | 0.896 | 0.737 | 0.494 | 0.991
12 | SK-LU-1 | 0.797 | 0.765 | 0.724 | 0.347 | 0.333 | 0.321 | 0.271 | 1.06 | 0.936 | 0.686 | 0.976 | 1.05 | 1.02 | 0.953 | 1.08 | 0.864 | 0.597 | 0.763 | 1.03 | 0.994
13 | SK-MES-1 | 1.17 | 1.08 | 1.13 | 0.55 | 0.531 | 0.548 | 0.44 | 1.08 | 0.904 | 0.755 | 0.998 | 0.92 | 0.967 | 0.89 | 1.02 | 1.01 | 0.912 | 1.14 | 0.994 | 1.07
14 | SW 900 | 0.806 | 0.511 | 0.621 | 0.541 | 0.484 | 0.75 | 0.478 | 0.487 | 0.469 | 0.373 | 0.821 | 0.777 | 0.964 | 0.745 | 1.03 | 0.788 | 1 | 0.582 | 0.489 | 0.986
15 | SW 1573 | 0.805 | 0.817 | 0.723 | 0.619 | 0.82 | 0.581 | 0.748 | 0.862 | 0.885 | 0.759 | 0.991 | 1.08 | 1.05 | 0.969 | 0.926 | 0.982 | 0.766 | 0.735 | 0.754 | 0.922
